Data: patent publication US8669293B2, “Method and compositions for preventing hormone induced adverse effects” (Lycored Ltd., priority 2000, dated 2014)
“Also recorded” adds a separate entry of the source.

Tests used:
[1] = tested on: estrogen receptor-positive human breast cancer cell lines; details: approximately 0.1 to 10 μM; not in estrogen receptor negative lines; cited from earlier work
[2] = tested on: ECC-1 endometrial cancer cells; experiment: ECC-1 cell proliferation assay ([3H]thymidine incorporation into DNA); type: cell-based, human; details: for inhibition of estradiol-induced cell proliferation / inhibition of genistein-induced cell proliferation: FIG. 4
Protocol: The human endometrial cancer (estrogen dependent) cell line ECC-1 was developed by Dr. […] University, PA, U.S.A, and generously provided to us by Dr. R. Oregan, Norwestern University, Chicago, Ill., U.S.A. Human mammary cancer cell lines MCF-7 (estrogen dependent) and MDA-231 (hormone independent) were obtained from the American Type Culture Collection (Rockville, Md., U.S.A.). Cells were cultured in DMEM containing penicillin (100 U/ml), streptomycin (0.1 mg/ml)) nystatin (12.5 μg/ml), insulin (0.6 μg/ml), and 10% FCS. Cells were stripped of endogenous steroids according to the procedure of Vignon et al. (1987, Biochem. Biophys. Res. Comm., 146:1502-8) by sucessive passages in medium without phenol red containing 10% and then 3% of charcoal-stripped FCS. Cells were seeded into 96 multiwell plates (5,000 cells per well) in DMEM containing 3% of charcoal-stripped FCS. After one day the medium was changed to one containing the solubilized carotenoid or THF alone. The medium was changed daily to ensure a continuous supply of carotenoid. After incubation, the number of cells and the rate of cell proliferation were estimated by the incorporation of [^3H]thymidine incorporation into cellular DNA, as described in U.S. Pat. No. 5,827,900. Cell growth was also measured by direct cell counting with a Coulter counter after trypsinization and dilution in Isotone-II (Coulter Electronics, Luton, England). A good correlation was found between the two methods. ECC-1 cells were incubated with increasing concentrations of the isoflavones genistein and daidzein, the two primary isoflavones in soy products, and with soy extract. Cell proliferation after three days was measured by [^3H]thymidine incorporation into DNA (FIG. 1, panel A). […] ECC-1 cells were also incubated with a single high concentration (40 μM) of each of genistein, daidzein and soy extract and cell proliferation was assayed daily over the course of three days.

[3] = tested on: MCF-7 mammary cancer cells (estrogen dependent); experiment: MCF-7 cell proliferation assay ([3H]thymidine incorporation); type: cell-based, human; details: for inhibition of phytoestrogen-induced cell proliferation: genistein 4 μM
Protocol: (§1) The human endometrial cancer (estrogen dependent) cell line ECC-1 was developed by Dr. P. G. Satyaswaroop, Pennslyvania State University, PA, U.S.A, and generously provided to us by Dr. R. Oregan, Norwestern University, Chicago, Ill., U.S.A. Human mammary cancer cell lines MCF-7 (estrogen dependent) and MDA-231 (hormone independent) were obtained from the American Type Culture Collection (Rockville, Md., U.S.A.).
(§2) Cells were cultured in DMEM containing penicillin (100 U/ml), streptomycin (0.1 mg/ml)) nystatin (12.5 μg/ml), insulin (0.6 μg/ml), and 10% FCS. Cells were stripped of endogenous steroids according to the procedure of Vignon et al. (1987, Biochem. Biophys. Res. Comm., 146:1502-8) by sucessive passages in medium without phenol red containing 10% and then 3% of charcoal-stripped FCS. Cells were seeded into 96 multiwell plates (5,000 cells per well) in DMEM containing 3% of charcoal-stripped FCS. After one day the medium was changed to one containing the solubilized carotenoid or THF alone. The medium was changed daily to ensure a continuous supply of carotenoid.
(§3) After incubation, the number of cells and the rate of cell proliferation were estimated by the incorporation of [^3H]thymidine incorporation into cellular DNA, as described in U.S. Pat. No. 5,827,900. Cell growth was also measured by direct cell counting with a Coulter counter after trypsinization and dilution in Isotone-II (Coulter Electronics, Luton, England).
The comparative effects of estradiol and genistein supplementation on the proliferation of the hormone-dependent cell lines MCF-7 mammary cancer and ECC-1 endometrial cancer were examined (FIG. 2).
MCF-7 mammary cancer cells were stimulated by genistein (4 μM) and test cultures were additionally supplemented with lycopene or phytoene or a combination of both, at either physiological concentrations (FIG. 6 panel A) or at about one order of magnitude greater than the physiological concentrations (FIG. 6 panel B).

[4] = tested on: MDA-231 mammary cancer cells (hormone independent); experiment: MDA-231 cell proliferation assay ([3H]thymidine incorporation); type: cell-based, human; details: IGF-1 30 nM
Protocol: as §1, §2
as §3, with “England). A good correlation was found between the two methods.” for “England).”

[5] = lycopene 3 to 5 μM, three days, FIG. 2
[6] = carotenoids at high, non-physiological concentrations (about one order of magnitude above physiological), FIG. 6 panel B
[7] = carotenoids at physiological concentrations, FIG. 6 panel A
[8] = 40 μM, after one day of incubation, FIG. 1 panel B
[9] = 0.4 and 4 μM, three days, FIG. 1 panel A
[10] = higher, non-physiological concentrations (≧10 μM), three days, FIG. 1 panel A

## O=c1c(O)c(-c2ccc(O)cc2)oc2cc(O)cc(O)c12 [kaempferl]
[1]
  effect on cell proliferation: induce cell proliferation

## CC(C)=CCC/C(C)=C/C=C/C(C)=C/C=C/C(C)=C/C=C/C=C(C)/C=C/C=C(C)/C=C/C=C(\C)CCC=C(C)C [lycopene]
[2]; estradiol 10 nM
  inhibition of estradiol-induced cell proliferation: effectively inhibited
[2]; estradiol 10 nM, various lycopene concentrations (lowest 0.9 μM), FIG. 5
  inhibition of estradiol-induced cell proliferation, dose dependence: all lycopene concentrations tested were effective in inhibiting
[2]; genistein 1 μM
  inhibition of genistein-induced cell proliferation: effective inhibitors; also recorded: effectively inhibited
[2]; genistein 1 μM, various lycopene concentrations (lowest 0.9 μM), FIG. 5
  inhibition of genistein-induced cell proliferation, dose dependence: all lycopene concentrations tested were effective in inhibiting
[2]; [5]
  effect on basal growth: significantly inhibited
  effect on estrogen-induced (genistein or estradiol) growth: substantially inhibited; also recorded: significantly inhibited
[3]; [6]
  inhibition of phytoestrogen-induced cell proliferation: effective in significantly inhibiting
[3]; [7]
  inhibition of phytoestrogen-induced cell proliferation: only marginally effective
[3]; lycopene 3 to 5 μM, IGF-1 30 nM, FIG. 3
  effect on IGF stimulation of proliferation: inhibits IGF stimulation
[3]; lycopene 3 to 5 μM, genistein 0.4 to 4 μM, IGF-1 30 nM, FIG. 3 panel A
  effect on cell proliferation stimulated by combined IGF-1 and genistein: inhibits the cell proliferation
[3]; [5]
  effect on basal growth: significantly inhibited
  effect on estrogen-induced (genistein or estradiol) growth: substantially inhibited; also recorded: significantly inhibited
[4]; lycopene 3 to 5 μM, FIG. 3
  cell proliferation relative to controls: reduced to levels less than that of controls
  effect on IGF stimulation of proliferation: inhibits IGF stimulation

## O=c1cc(-c2ccc(O)c(O)c2)oc2cc(O)cc(O)c12 [luiolin]
[1]
  effect on cell proliferation: induce cell proliferation

## IGF-1: Human recombinant IGF-1 purchased from GroPep
[3]; IGF-1 30 nM, FIG. 3 panel A
  effect on cell growth: significantly stimulates cell growth
[4]; FIG. 3 panel B
  effect on cell growth: significantly stimulates cell growth

## CC1=C(/C=C/C(C)=C/C=C/C(C)=C/C=C/C=C(C)/C=C/C=C(C)/C=C/C2=C(C)CCCC2(C)C)C(C)(C)CCC1 [beta-carotene]
[2]; estradiol 10 nM
  inhibition of estradiol-induced cell proliferation: effectively inhibited
[2]; genistein 1 μM
  inhibition of genistein-induced cell proliferation: effective inhibitors; also recorded: effectively inhibited

## O=c1c(-c2ccc(O)cc2)coc2cc(O)ccc12 [daidzein, reference compound]
[2]; [8]
  effect on cell proliferation: significantly increases cell proliferation; also recorded: stimulated cell proliferation
[2]; [9]
  effect on cell proliferation: significant increase in cell proliferation rate; also recorded: stimulated cell proliferation
[2]; [10]
  effect on cell proliferation: only stimulatory

## O=c1c(-c2ccc(O)cc2)coc2cc(O)cc(O)c12 [genistein, reference compound]
[2]; [8]
  effect on cell proliferation: significantly increases cell proliferation; also recorded: stimulated cell proliferation
[2]; 40 μM, second day in culture, FIG. 1 panel B
  effect on cell proliferation: inhibitory effects
[2]; [9]
  effect on cell proliferation: significant increase in cell proliferation rate
[2]; 0.4 and 4 μM, three days, FIG. 1 panel A, listed as Genistein
  effect on cell proliferation: stimulated cell proliferation
[2]; genistein increasing concentrations, estradiol 1 and 10 nM, FIG. 1/2
  effect of hormone alone on proliferation: biphasic effects on proliferation
[2]; [10]
  effect on cell proliferation: inhibited cell proliferation
[3]; genistein about 0.4 to 4 μM plus IGF-1 30 nM, compared with genistein alone, FIG. 3 panel A
  stimulatory effect of genistein in the presence of IGF-1: significantly increases the cell proliferation rate; also recorded: further augmented
[3]; genistein increasing concentrations, estradiol 1 and 10 nM, FIG. 2
  effect of hormone alone on proliferation: biphasic effects on proliferation
[1]
  effect on cell proliferation: induce cell proliferation

## O=c1oc2cc(O)ccc2c2oc3cc(O)ccc3c12 [counestrol]
[1]
  effect on cell proliferation: induce cell proliferation

## COc1ccc(-c2coc3cc(O)cc(O)c3c2=O)cc1 [biochanin A]
[1]
  effect on cell proliferation: induce cell proliferation

## CC1=C(/C=C/C(C)=C/C=C/C(C)=C/C=C/C=C(C)/C=C/C=C(C)/C=C/C2=C(C)C(=O)[C@@H](O)CC2(C)C)C(C)(C)C[C@H](O)C1=O [astaxanthin]
[2]; estradiol 10 nM
  inhibition of estradiol-induced cell proliferation: effectively inhibited
[2]; genistein 1 μM
  inhibition of genistein-induced cell proliferation: effective inhibitors; also recorded: effectively inhibited

## CC(C)=CCC/C(C)=C/CC/C(C)=C/CC/C(C)=C/C=C/C=C(\C)CC/C=C(\C)CC/C=C(\C)CCC=C(C)C [phytoene]
[2]; genistein 1 μM
  inhibition of genistein-induced cell proliferation: effective inhibitors
[3]; [6]
  inhibition of phytoestrogen-induced cell proliferation: effective in significantly inhibiting
[3]; [7]
  inhibition of phytoestrogen-induced cell proliferation: not effective
